The nature of series [1]: Stability in mouse plasma. Type of series: in vitro ADME. Conditions: for Mouse Plasma Stability t1/2: 1 μM, 37° C. Here is the method:
Stability in mouse plasma was tested as follows. The assay was conducted at 37° C. in triplicate. Test compound or procaine (positive control) was tested at a final concentration of 1 μM in either 2.5% DMSO/CD-1 mouse plasma (Innovative Research, Novi, MI; sodium heparin added as anticoagulant; pH adjusted to 7.4 with 2N HCl on day of use) or 2.5% DMSO/PBS (pH 7.4:136.9 mM NaCl, 2.68 mM KCl, 8.1 mM Na2HPO4, 1.47 mM KH2PO4, 0.9 mM CaCl2, 0.49 mM MgCl2). At seven time points, reaction mixture aliquots were transferred to 96-shallow well stop plates on ice containing acetonitrile with 0.1 μM propafenone. Samples were analyzed by LC/MS/MS on a Waters Xevo TQ instrument as described above using positive electrospray ionization. Assay acceptance criteria was 20% for all standards and 25% for the LLOQ. GraphPad® Prism v. 5.04 was used for nonlinear fitting of data to generate t1/2 values.

Another series concerns HL60. Description: CellTiter-Blue cell viability assay, HL60. The format is cell-based, human. Particulars: 48 h, mean of triplicates. Here is the method:
Cell culture of leukemia cell lines model was performed as follows. HL60, K562, and NB4 cell lines were purchased from CLS Cell Line Service GmbH (Eppelheim, Germany). MV4-11 cell line was purchased from American Type Culture Collection (ATCC; Virginia, USA). KG1α also referred to as KG1a was a gift from Prof. Ghulam Mufti (King College London, UK). Kasumi-1 cell line was purchased from Nawah Scientific (Cairo, Egypt). All cell lines were cultured in Roswell Park Memorial Institute-1640 (RPMI-1640) culture medium supplemented with 10% fetal bovine serum (FBS) (Thermo Fisher Scientific) and 0.1% ciprofloxacin (10 μg/ml; Cipla Limited; Mumbai, India). Cells were maintained in a humidified incubator at 37° C. with 5% CO2.
Cell viability was determined using the CellTiter-Blue® Cell Viability Assay kit (Promega, Madison, WI, USA). Approximately […] were plated in 96 well plate in the presence of increasing drug concentration in triplicate and incubated for 48 h at 37° C. in a humidified incubator. After the incubation period, 20 μL of the cell titer blue reagent was added to each well and the plate was incubated for additional 2 h for the development of florescence. Florescence was measured at 540Ex/590Em on SpectraMax i3 Multi-Mode Microplate Reader (Molecular Devices, LLC; San Jose, CA, USA). […]
A general note: Alamar Blue is a resazurin reagent that responds to reducing activity.

A short description of series [2]: Maximum kinetic aqueous solubility. The format is physicochemical. Particulars: 2% DMSO/PBS, pH 7.4, read-out: Max. aq. Sol. Here is the method:
Solubility assays were performed using Millipore MultiScreen® HTS-PFC Filter Plates designed for solubility assays (EMD Millipore, Billerica, MA). Assays were run in triplicate. The 96-well plates consist of two chambers separated by a filter. Liquid handling was performed using JANUS® Verispan and MTD workstations (Perkin Elmer, Waltham, MA). 4 μL of compound (Id) solution (10 mM in DMSO) was added to 196 μL of phosphate buffer (45 mM potassium phosphate, 45 mM sodium acetate, 45 mM ethanolamine, pH=7.4) in the top chamber to give a final DMSO concentration of 2% and a theoretical drug concentration of 200 μM. Plates were gently shaken for 90 min and then subjected to vacuum. Insoluble drug was captured on the filter. 160 μL of the filtrate was transferred to 96-well Griener UV Star® analysis plates (Sigma-Aldrich, St. Louis, MO) containing 40 μL of acetonitrile. The test compound concentration in the filtrates was measured by UV absorbance on a SpectraMax® Plus microplate reader (Molecular Devices, Sunnyvale, CA) using Softmax Pro software v.5.4.5. Absorbances at 5 wavelengths (280, 300, 320, 340, and 360 nm) were summed to generate the UV signal. Standard curves were generated by adding 4 μL of five concentrations of test compound in DMSO to 40 μL of acetonitrile in UV Star plates followed by 156 μL of the appropriate solubility medium. Analysis and statistics were performed using GraphPad® Prism v.5.04. Data were reported as the maximum concentration observed in the filtrate.

The next series has as its system HCT116. Description: CellTiter-Blue cell viability assay, HCT116. The format is cell-based, human. Particulars: 50% cell viability vs untreated, mean of triplicates. The protocol: Cell culture of colorectal carcinoma cell lines was performed as follows. DLD-1, HCT116, and HT-29 cells were purchased from CLS Cell Line Service GmbH (Eppelheim, Germany) and cultured in Dulbecco's Modified Eagle Medium (DMEM) high glucose, GlutaMAX™ Supplement, pyruvate (Thermo Fisher Scientific, Paisley, UK) supplemented with 10% fetal bovine serum (FBS; Thermo Fisher Scientific), 200 U/mL penicillin, and 200 μg/ml streptomycin (Thermo Fisher Scientific), at 37° C. with 5% CO2 in a humidified incubator.
The CellTiter®-Blue Cell Viability assay was acquired from Promega Corporation (Madison, WI, USA). Cell viability assay was performed as follows: DLD-1 (4×10^3/well), HCT116 (4×10^3/well), and HT-29 (7×10^3/well) were incubated with a concentration gradient of compound (Id) ranging from 0.01 to 20 μM, in 96-well plates for 48 h at 37° C. Subsequently, 20 μl CellTiter®-Blue Cell Viability reagent was added to each well and incubated for an additional 2 h for the development of fluorescence. The fluorescence emission was measured at 590 nm using a SpectraMax® i3× Multi-Mode microplate reader (Molecular Devices, LLC, San Jose, CA, USA) and plotted against drug concentrations to determine the mean inhibitory concentration of compound (Id) producing 50% decrease in cell viability (IC50). Experiments were performed in triplicates.

In brackets after ≈: the same amount, converted by molar mass. Like-named read-outs stand apart in the source and are kept apart here.

Usually IC50 stands for the concentration that gives 50% inhibition.

In the case of `CC1=N/C(=C\c2ccc(C)o2)C(=O)N1c1ccc(CC(=O)NCc2ccccc2)cc1` [Compound (Id), 2-Methyl-4-(5-methyl-2-furyl)methylene-1-[4-(benzylaminocarbonylmethyl)phenyl]-5-oxo-1H-imidazole], the “Mouse Plasma Stability t1/2” value in series [1] was greater than 5 h. In addition, the half-life at 1 μM in series [1] (CD-1, mouse, plasma, pH 7.4, 37° C., read-out: Mouse Plasma Stability t1/2) was greater than 5 h. The IC50 in the series with HL60 (Homo sapiens, HL-60) worked out at 0.443 µM; in the series with HCT116 (48 h) it was 1.46 µM; with HCT116 (Homo sapiens, HCT-116, 48 h), 1.46 µM. The solubility kinetic at 90 min in series [2] worked out at 79.8 µM (≈ 33 µg/mL); in series [2] (phosphate buffer with 2% DMSO, aqueous buffer, kinetic from dmso stock), 79.8 µM (≈ 33 µg/mL).

Take `COc1ccc(/C=C2\N=C(C)N(c3ccc(CC(=O)NCc4ccccc4)cc3)C2=O)cc1` [KIM-161, reference compound]: the “Mouse Plasma Stability t1/2” value in series [1] is greater than 5 h. In addition, the IC50 in the series with HL60 was 0.238 µM; in the series with HCT116 (48 h) it was 1.77 µM. For the same compound, the solubility kinetic at 90 min in series [2] was determined as 19.9 µM (≈ 8.75 µg/mL).

Source of the values: patent publication US20250282764A1, “IMIDAZOLE HETEROCYCLE BASED COMPOUNDS AND METHODS OF TREATING CANCER” (King Abdulaziz University, priority 2024, published 2025).
